The series is described as follows: Release of fluorometholone from the gel in the rabbit eye, measured in the aqueous humor. The following applies: measured by fluorometholone contained in the aqueous humor; from the gel of the aqueous polymer suspension. Format: in vivo. As for the experimental part: The viscous gels that result from fluid eyedrops delivered by means of the aqueous suspensions of this invention have residence times in the eye ranging from about 2 to about 12 hours, e.g., from about 3 to about 6 hours. The active ingredients contained in these ophthalmically acceptable vehicles can be released from the gels at rates that depend on such factors as the active ingredient itself and its physical form, the extent of drug loading and the pH of the system, as well as on any drug delivery adjuvants, such as ion exchange resins compatible with the ocular surface, which can also be present.

Results on 1 compound are retold here after patent US10980818B2, “Methods for treating ocular inflammatory diseases” (SUN PHARMA GLOBAL FZE, priority 2009, dated 2021).

Consider `CC(=O)[C@@]1(O)CC[C@H]2[C@@H]3C[C@H](C)C4=CC(=O)C=C[C@]4(C)[C@@]3(F)[C@@H](O)C[C@@]21C` [fluorometholone], for which the “Release rates in the rabbit eye” value is “in excess of four hours”.
